Laboratory results as given in patent US4923986A, “Derivatives of physiologically active substance K-252” (Kyowa Hakko Kogyo Co., Ltd., priority 1988, dated 1990).
Converted amounts (≈) assume the structure as drawn.

What follows are molecules tested on COLO320DM cells (assay: COLO320DM cell growth inhibition test). Conditions: Homo sapiens, COLO 320DM; COLO320DM cells, cells counted with a microcell counter; read-out: cell growth inhibitory activity IC50, COLO320DM.
Assay type: cell-based
Description: (§1) After incubation at 37° C. overnight in CO2 -incubator, 0.05 ml each of a test sample appropriately diluted with the culture medium is added to each well. In the case of contact for 72 hours, the cells are further cultured in CO2 -incubator, and then the culture supernatant is removed and the wells are washed once with PBS(-). Thereafter, 0.1 ml of fresh medium is added to each well, followed by culturing at 37° C. for 72 hours in CO2 -incubator. After the culture supernatant is removed, 0.1 ml of the culture medium containing 0.02% Neutral Red is added to each well, followed by culturing at 37° C. for one hour in CO2 -incubator, whereby the cells are stained. Then, the culture supernatant is removed and the cells are washed once with physiological saline. The pigment is extracted with 0.001N HCl/30% ethanol and absorption is measured at 550 nm with a microplate reader.
(4) COLO320DM cell growth inhibition test:
Thereafter, the test is carried out in the same manner as in (1) except that the cells are counted with a microcell counter.

Compound | IC50 [µg/mL]
CC12OC(CC13CN(CC=NNC(=N)N)C(=O)O3)n1c3ccccc3c3c4c(c5c6ccccc6n2c5c31)CNC4=O (stereo not shown) [Compound 63] | 0.64 (≈ 1.14 µM)
CC12OC(CC1(O)CO)n1c3ccccc3c3c4c(c5c6ccccc6n2c5c31)C(=O)NC4=O (stereo not shown) [Compound 67] | 0.18 (≈ 0.397 µM)
COC(=O)C1(O)CC2OC1(C)n1c3ccccc3c3c4c(c5c6ccccc6n2c5c31)C(=O)N(CCN(C)C)C4=O (stereo not shown) [Compound 69] | 0.68 (≈ 1.23 µM)
CN(C)CCN1C(=O)c2c(c3c4ccccc4n4c3c3c2c2ccccc2n3C2CC(O)(CO)C4(C)O2)C1=O (stereo not shown) [Compound 70] | 0.41 (≈ 0.782 µM)
CC12OC(CC1(O)CN)n1c3ccccc3c3c4c(c5c6ccccc6n2c5c31)C(=O)N(N)C4=O (stereo not shown) [Compound 71] | > 1
CC12OC(CC1(O)CO)n1c3ccccc3c3c4c(c5c6ccccc6n2c5c31)C(=O)N(N)C4=O (stereo not shown) [Compound 72] | 0.37 (≈ 0.79 µM)
CN1CC2(CC3OC2(C)n2c4ccccc4c4c5c(c6c7ccccc7n3c6c42)C(=O)NC5=O)OC1=O (stereo not shown) [Compound 75] | 0.18 (≈ 0.365 µM)
CC12OC(CC1(O)C(=O)NO)n1c3ccccc3c3c4c(c5c6ccccc6n2c5c31)C(=O)NC4=O (stereo not shown) [Compound 76] | 0.06 (≈ 0.124 µM)

These molecules were tested on MCF 7 cells (assay: MCF 7 cell growth inhibition test). Conditions: Homo sapiens, MCF7; MCF-7 cells, contact for 72 hours; read-out: cell growth inhibitory activity IC50, MCF-7.
Assay type: cell-based
Description: (§2) Compound (I) was examined for C-kinase inhibitory activity and cell growth inhibitory activity by the following method.
(1) MCF 7 cell growth inhibition test:
as §1, with “MCF 7 cells (4.5×10^4 cells/ml) prepared in RPMI 1640 medium containing 10% fetal calf serum, 10 μg/ml insulin and 10^-8 M estradiol are put into wells of a 96-well microtiter plate in the amount of 0.1 ml per each well. After incubation” for “After incubation”, “microplate reader. By comparing the absorption of intact cells with those of the cells treated with a test compound in known concentrations, the concentration of the test compound at which growth of the cells is inhibited 50% is calculated as IC50.” for “microplate reader.”

Compound | IC50 [µg/mL]
COC(=O)[C@@]1(O)C[C@H]2O[C@]1(C)n1c3ccc(O)cc3c3c4c(c5c6cc(O)ccc6n2c5c31)C(=O)NC4 (relative stereo) [Compound 16] | 0.84 (≈ 1.68 µM)
CC12OC(CC13CN(CC=NNC(=N)N)C(=O)O3)n1c3ccccc3c3c4c(c5c6ccccc6n2c5c31)CNC4=O (stereo not shown) [Compound 63] | 0.45 (≈ 0.8 µM)
COC(=O)C1(O)CC2OC1(C)n1c3ccccc3c3c4c(c5c6ccccc6n2c5c31)C(=O)N(CCN(C)C)C4=O (stereo not shown) [Compound 69] | > 1
CN(C)CCN1C(=O)c2c(c3c4ccccc4n4c3c3c2c2ccccc2n3C2CC(O)(CO)C4(C)O2)C1=O (stereo not shown) [Compound 70] | 0.45 (≈ 0.858 µM)
CC12OC(CC1(O)CN)n1c3ccccc3c3c4c(c5c6ccccc6n2c5c31)C(=O)N(N)C4=O (stereo not shown) [Compound 71] | 1 (≈ 2.14 µM)
CC12OC(CC1(O)CO)n1c3ccccc3c3c4c(c5c6ccccc6n2c5c31)C(=O)N(N)C4=O (stereo not shown) [Compound 72] | 0.2 (≈ 0.427 µM)
CC12OC(CC1(O)C(=O)NO)n1c3ccccc3c3c4c(c5c6ccccc6n2c5c31)C(=O)NC4=O (stereo not shown) [Compound 76] | 0.62 (≈ 1.29 µM)

The molecules below were run on HeLaS3 cells (assay: HeLaS3 cell growth inhibition test). Conditions: Homo sapiens, HeLa S3; HeLaS3 cells, contact for 72 hours; read-out: cell growth inhibitory activity IC50, HeLaS3.
Assay type: cell-based
Description: as §2
as §1, with “MCF 7 cells (4.5×10^4 cells/ml) prepared in RPMI 1640 medium containing 10% fetal calf serum, 10 μg/ml insulin and 10^-8 M estradiol are put into wells of a 96-well microtiter plate in the amount of 0.1 ml per each well. After incubation” for “After incubation”, “microplate reader. By comparing the absorption of intact cells with those of the cells treated with a test compound in known concentrations, the concentration of the test compound at which growth of the cells is inhibited 50% is calculated as IC50.” for “microplate reader.”
(3) HeLaS3 cell growth inhibition test:
HeLaS3 cells (3×10^4 cells/ml) prepared in MEM medium containing 10% fetal calf serum and 2 mM glutamine are put into wells of a 96-well microtiter plate in the amount of 0.1 ml per each well.
Thereafter, the test is carried out in the same manner as in (1).

Compound | IC50 [µg/mL]
COC(=O)[C@@]1(O)C[C@H]2O[C@]1(C)n1c3ccc(O)cc3c3c4c(c5c6cc(O)ccc6n2c5c31)C(=O)NC4 (relative stereo) [Compound 16] | 0.44 (≈ 0.881 µM)
CC12OC(CC13CN(CC=NNC(=N)N)C(=O)O3)n1c3ccccc3c3c4c(c5c6ccccc6n2c5c31)CNC4=O (stereo not shown) [Compound 63] | 0.2 (≈ 0.355 µM)
CC12OC(CC1(O)CO)n1c3ccccc3c3c4c(c5c6ccccc6n2c5c31)C(=O)NC4=O (stereo not shown) [Compound 67] | 0.95 (≈ 2.1 µM)
COC(=O)C1(O)CC2OC1(C)n1c3ccccc3c3c4c(c5c6ccccc6n2c5c31)C(=O)N(CCN(C)C)C4=O (stereo not shown) [Compound 69] | 0.88 (≈ 1.59 µM)
CN(C)CCN1C(=O)c2c(c3c4ccccc4n4c3c3c2c2ccccc2n3C2CC(O)(CO)C4(C)O2)C1=O (stereo not shown) [Compound 70] | 0.5 (≈ 0.953 µM)
CC12OC(CC1(O)CN)n1c3ccccc3c3c4c(c5c6ccccc6n2c5c31)C(=O)N(N)C4=O (stereo not shown) [Compound 71] | > 1
CC12OC(CC1(O)CO)n1c3ccccc3c3c4c(c5c6ccccc6n2c5c31)C(=O)N(N)C4=O (stereo not shown) [Compound 72] | 0.24 (≈ 0.512 µM)
CN1CC2(CC3OC2(C)n2c4ccccc4c4c5c(c6c7ccccc7n3c6c42)C(=O)NC5=O)OC1=O (stereo not shown) [Compound 75] | 0.27 (≈ 0.548 µM)
CC12OC(CC1(O)C(=O)NO)n1c3ccccc3c3c4c(c5c6ccccc6n2c5c31)C(=O)NC4=O (stereo not shown) [Compound 76] | 0.4 (≈ 0.829 µM)

What follows are molecules tested against C-kinase (protein kinase C) (assay: C-Kinase inhibitory activity test). Conditions: enzyme activity inhibited 50%.
Assay type: biochemical

Compound | C-Kinase inhibitory activity IC50 [µg/mL]
COC(=O)[C@@]1(O)C[C@H]2O[C@]1(C)n1c3ccc(O)cc3c3c4c(c5c6cc(O)ccc6n2c5c31)C(=O)NC4 (relative stereo) [Compound 16] | 0.005
CC12OC(CC13CN(CC=NNC(=N)N)C(=O)O3)n1c3ccccc3c3c4c(c5c6ccccc6n2c5c31)CNC4=O (stereo not shown) [Compound 63] | 0.053
CC12OC(CC1(O)CO)n1c3ccccc3c3c4c(c5c6ccccc6n2c5c31)C(=O)NC4=O (stereo not shown) [Compound 67] | 0.016
CC12OC(CC1(O)CO)n1c3ccccc3c3c4c(c5c6ccccc6n2c5c31)C(=O)N(N)C4=O (stereo not shown) [Compound 72] | 0.22
